Assay results: patent US11154060B2, “Microbiocidal oxadiazole derivatives” (SYNGENTA PARTICIPATIONS AG, priority 2016, dated 2021)

Columns and labels:
[1] = tested on: Puccinia recondita f. sp. tritici; assay: Puccinia recondita f. sp. tritici / wheat / leaf disc preventative (brown rust); type: in vivo; conditions: foliar, wheat leaf segments cv. Kanzler, inoculated 1 day after application, assessed 7-9 days after application, read-out: control of Puccinia recondita f. sp. tritici compared to untreated control
Method: Leaf disks or leaf segments of various plant species are cut from plants grown in a greenhouse. The cut leaf disks or segments are placed in multiwell plates (24-well format) onto water agar. The leaf disks are sprayed with a test solution before (preventative) or after (curative) inoculation. Compounds to be tested are prepared as DMSO solutions (max. 10 mg/ml) which are diluted to the appropriate concentration with 0.025% Tween20 just before spraying. The inoculated leaf disks or segments are incubated under defined conditions (temperature, relative humidity, light, etc.) according to the respective test system. A single evaluation of disease level is carried out 3 to 14 days after inoculation, depending on the pathosystem. Percent disease control relative to the untreated check leaf disks or segments is then calculated. Wheat leaf segments cv. Kanzler are placed on agar in multiwell plates (24-well format) and sprayed with the formulated test compound diluted in water. The leaf disks are inoculated with a spore suspension of the fungus 1 day after application. The inoculated leaf segments are incubated at 19° C. and 75% rh under a light regime of 12 h light/12 h darkness in a climate cabinet and the activity of a compound is assessed as percent disease control compared to untreated when an appropriate level of disease damage appears in untreated check leaf segments (7-9 days after application).

[2] = tested on: Puccinia recondita f. sp. tritici; assay: Puccinia recondita f. sp. tritici / wheat / leaf disc curative (brown rust); type: in vivo; conditions: foliar, wheat leaf segments cv. Kanzler, applied 1 day after inoculation, assessed 6-8 days after application, read-out: control of Puccinia recondita f. sp. tritici compared to untreated control
Method: Leaf disks or leaf segments of various plant species are cut from plants grown in a greenhouse. The cut leaf disks or segments are placed in multiwell plates (24-well format) onto water agar. The leaf disks are sprayed with a test solution before (preventative) or after (curative) inoculation. Compounds to be tested are prepared as DMSO solutions (max. 10 mg/ml) which are diluted to the appropriate concentration with 0.025% Tween20 just before spraying. The inoculated leaf disks or segments are incubated under defined conditions (temperature, relative humidity, light, etc.) according to the respective test system. A single evaluation of disease level is carried out 3 to 14 days after inoculation, depending on the pathosystem. Percent disease control relative to the untreated check leaf disks or segments is then calculated. Wheat leaf segments cv. Kanzler are placed on agar in multiwell plates (24-well format). The leaf segments are inoculated with a spore suspension of the fungus. Plates are stored in darkness at 19° C. and 75% rh. The formulated test compound diluted in water is applied 1 day after inoculation. The leaf segments are incubated at 19° C. and 75% rh under a light regime of 12 h light/12 h darkness in a climate cabinet and the activity of a compound is assessed as percent disease control compared to untreated when an appropriate level of disease damage appears in untreated check leaf segments (6-8 days after application).

Phakopsora pachyrhizi = Phakopsora pachyrhizi / soybean / leaf disc preventative (Asian soybean rust); type: in vivo; conditions: foliar, soybean leaf disks, inoculated one day after application, assessed 12-14 days after application, read-out: control of Phakopsora pachyrhizi compared to untreated control
Method: Leaf disks or leaf segments of various plant species are cut from plants grown in a greenhouse. The cut leaf disks or segments are placed in multiwell plates (24-well format) onto water agar. The leaf disks are sprayed with a test solution before (preventative) or after (curative) inoculation. Compounds to be tested are prepared as DMSO solutions (max. 10 mg/ml) which are diluted to the appropriate concentration with 0.025% Tween20 just before spraying. The inoculated leaf disks or segments are incubated under defined conditions (temperature, relative humidity, light, etc.) according to the respective test system. A single evaluation of disease level is carried out 3 to 14 days after inoculation, depending on the pathosystem. Percent disease control relative to the untreated check leaf disks or segments is then calculated. Soybean leaf disks are placed on water agar in multiwell plates (24-well format) and sprayed with the formulated test compound diluted in water. One day after application leaf discs are inoculated by spraying a spore suspension on the lower leaf surface. After an incubation period in a climate cabinet of 24-36 hours in darkness at 20° C. and 75% rh leaf disc are kept at 20° C. with 12 h light/12 h darkness and 75% rh. The activity of a compound is assessed as percent disease control compared to untreated when an appropriate level of disease damage appears in untreated check leaf disks (12-14 days after application).

Uromyces viciae-fabae = Uromyces viciae-fabae / field bean / leaf disc preventative (faba-bean rust); type: in vivo; conditions: foliar, 288 h, 100 ppm in the applied formulation, field bean leaf discs, inoculated two hours after application, 12 days after application, read-out: disease control compared to untreated control leaf discs
Method: Leaf disks or leaf segments of various plant species are cut from plants grown in a greenhouse. The cut leaf disks or segments are placed in multiwell plates (24-well format) onto water agar. The leaf disks are sprayed with a test solution before (preventative) or after (curative) inoculation. Compounds to be tested are prepared as DMSO solutions (max. 10 mg/ml) which are diluted to the appropriate concentration with 0.025% Tween20 just before spraying. The inoculated leaf disks or segments are incubated under defined conditions (temperature, relative humidity, light, etc.) according to the respective test system. A single evaluation of disease level is carried out 3 to 14 days after inoculation, depending on the pathosystem. Percent disease control relative to the untreated check leaf disks or segments is then calculated. Field bean leaf discs are placed on water agar in multiwell plates (96-well format) and 10 μl of the formulated test compound diluted in acetone and a spreader pipetted onto the leaf disc. Two hours after application leaf discs are inoculated by spraying a spore suspension on the lower leaf surface. The leaf discs are incubated in a climate cabinet at 22° C. with 18 hour day and 70% relative humidity. The activity of a compound is assessed as percent disease control compared to untreated when an appropriate level of disease damage appears in untreated check leaf disks (12 days after application).

[3] = tested on: Glomerella lagenarium (Colletotrichum lagenarium); assay: Glomerella lagenarium (Colletotrichum lagenarium) liquid culture / cucumber / preventative (anthracnose); type: cell-based; conditions: Colletotrichum orbiculare, liquid culture in PDB, 24° C., 3-4 days after application, read-out: control of Glomerella lagenarium compared to untreated control (inhibition of growth, photometric)
Method: Mycelia fragments or conidia suspensions of a fungus prepared either freshly from liquid cultures of the fungus or from cryogenic storage, are directly mixed into nutrient broth. DMSO solutions of the test compound (max. 10 mg/ml) are diluted with 0.025% Tween20 by a factor of 50 and 10 μl of this solution is pipetted into a microtiter plate (96-well format). The nutrient broth containing the fungal spores/mycelia fragments is then added to give an end concentration of the tested compound. The test plates are incubated in the dark at 24° C. and 96% relative humidity. The inhibition of fungal growth is determined photometrically after 2 to 7 days, depending on the pathosystem, and percent antifungal activity relative to the untreated check is calculated. Conidia of the fungus from cryogenic storage are directly mixed into nutrient broth (PDB potato dextrose broth). After placing a (DMSO) solution of test compound into a microtiter plate (96-well format), the nutrient broth containing the fungal spores is added. The test plates are incubated at 24° C. and the inhibition of growth is measured photometrically 3-4 days after application.

CON(C)C(=O)c1ccc(-c2noc(C(F)(F)F)n2)cc1F [Compound 1.2, 2-fluoro-N-methoxy-N-methyl-4-[5-(trifluoromethyl)-1,2,4-oxadiazol-3-yl]benzamide]
≥ 80%: pest or weed control at 200 ppm [1] | pest or weed control at 200 ppm [2] | pest or weed control at 200 ppm (Phakopsora pachyrhizi) | pest or weed control at 100 ppm (Uromyces viciae-fabae)

CON(Cc1c(Cl)cc(Cl)cc1Cl)C(=O)c1ccc(-c2noc(C(F)(F)F)n2)cc1F [Compound 1.3, 2-fluoro-N-methoxy-N-[(2,4,6-trichlorophenyl)methyl]-4-[5-(trifluoromethyl)-1,2,4-oxadiazol-3-yl]benzamide]
≥ 80%: pest or weed control at 100 ppm (Uromyces viciae-fabae)

COC(=O)C1(N(O)C(=O)c2ccc(-c3noc(C(F)(F)F)n3)cc2F)CCN(OC)CC1 [Compound 1.5, methyl 4-[[2-fluoro-4-[5-(trifluoromethyl)-1,2,4-oxadiazol-3-yl]benzoyl]-hydroxy-amino]-1-methoxy-piperidine-4-carboxylate]
≥ 80%: pest or weed control at 200 ppm [1] | pest or weed control at 200 ppm [2] | pest or weed control at 200 ppm (Phakopsora pachyrhizi) | inhibition at 20 ppm [3] | pest or weed control at 100 ppm (Uromyces viciae-fabae)

CON(Cc1ccccc1)C(=O)c1ccc(-c2noc(C(F)(F)F)n2)cc1F [Compound 1.6, N-benzyl-2-fluoro-N-methoxy-4-[5-(trifluoromethyl)-1,2,4-oxadiazol-3-yl]benzamide]
≥ 80%: pest or weed control at 200 ppm [1] | pest or weed control at 200 ppm [2] | pest or weed control at 200 ppm (Phakopsora pachyrhizi) | inhibition at 20 ppm [3] | pest or weed control at 100 ppm (Uromyces viciae-fabae)

CON(Cc1ccco1)C(=O)c1ccc(-c2noc(C(F)(F)F)n2)cc1F [Compound 1.7, 2-fluoro-N-(2-furylmethyl)-N-methoxy-4-[5-(trifluoromethyl)-1,2,4-oxadiazol-3-yl]benzamide]
≥ 80%: pest or weed control at 200 ppm [1] | pest or weed control at 200 ppm [2] | pest or weed control at 200 ppm (Phakopsora pachyrhizi) | inhibition at 20 ppm [3] | pest or weed control at 100 ppm (Uromyces viciae-fabae)

CON(CC1CC1)C(=O)c1ccc(-c2noc(C(F)(F)F)n2)cc1F [Compound 1.8, N-(cyclopropylmethyl)-2-fluoro-N-methoxy-4-[5-(trifluoromethyl)-1,2,4-oxadiazol-3-yl]benzamide]
≥ 80%: pest or weed control at 200 ppm [1] | pest or weed control at 200 ppm [2] | pest or weed control at 200 ppm (Phakopsora pachyrhizi) | inhibition at 20 ppm [3] | pest or weed control at 100 ppm (Uromyces viciae-fabae)

CON(C(=O)c1ccc(-c2noc(C(F)(F)F)n2)cc1F)C(C)COC1CCCCO1 (stereo not drawn) [Compound 1.9, 2-fluoro-N-methoxy-N-(1-methyl-2-tetrahydropyran-2-yloxy-ethyl)-4-[5-(trifluoromethyl)-1,2,4-oxadiazol-3-yl]benzamide]
≥ 80%: inhibition at 20 ppm [3] | pest or weed control at 100 ppm (Uromyces viciae-fabae)

C#CCN(OC)C(=O)c1ccc(-c2noc(C(F)(F)F)n2)cc1F [Compound 1.10, 2-fluoro-N-methoxy-N-prop-2-ynyl-4-[5-(trifluoromethyl)-1,2,4-oxadiazol-3-yl]benzamide]
≥ 80%: pest or weed control at 200 ppm [1] | pest or weed control at 200 ppm [2] | pest or weed control at 200 ppm (Phakopsora pachyrhizi) | inhibition at 20 ppm [3] | pest or weed control at 100 ppm (Uromyces viciae-fabae)

CON(C(=O)c1ccc(-c2noc(C(F)(F)F)n2)cc1F)C(C)CO (stereo not drawn) [Compound 1.12, 2-fluoro-N-(2-hydroxy-1-methyl-ethyl)-N-methoxy-4-[5-(trifluoromethyl)-1,2,4-oxadiazol-3-yl]benzamide]
≥ 80%: pest or weed control at 200 ppm [2] | inhibition at 20 ppm [3] | pest or weed control at 100 ppm (Uromyces viciae-fabae)

COC(=O)C1(N(O)C(=O)c2ccc(-c3noc(C(F)(F)F)n3)cc2)CCN(OC)CC1 [Compound 2.1, methyl 4-[hydroxy-[4-[5-(trifluoromethyl)-1,2,4-oxadiazol-3-yl]benzoyl]amino]-1-methoxy-piperidine-4-carboxylate]
≥ 80%: pest or weed control at 200 ppm [1] | pest or weed control at 200 ppm (Phakopsora pachyrhizi) | inhibition at 20 ppm [3] | pest or weed control at 100 ppm (Uromyces viciae-fabae)

COC(=O)[C@H](C)N(OC)C(=O)c1ccc(-c2noc(C(F)(F)F)n2)cc1 [Compound 2.3, methyl (2S)-2-[methoxy-[4-[5-(trifluoromethyl)-1,2,4-oxadiazol-3-yl]benzoyl]amino]propanoate]
≥ 80%: pest or weed control at 200 ppm [2] | inhibition at 20 ppm [3] | pest or weed control at 100 ppm (Uromyces viciae-fabae)

COC(=O)C(C)N(OC)C(=O)c1ccc(-c2noc(C(F)(F)F)n2)cc1 (stereo not drawn) [Compound 2.9, methyl 2-[methoxy-[4-[5-(trifluoromethyl)-1,2,4-oxadiazol-3-yl]benzoyl]amino]propanoate]
≥ 80%: pest or weed control at 200 ppm [2] | inhibition at 20 ppm [3] | pest or weed control at 100 ppm (Uromyces viciae-fabae)
